Assay results taken from paper PMC10089971 (British journal of pharmacology, 2023).
Entries after “also recorded” stand apart in the source; their conditions may differ. Where a name gives a salt, the structure may show the parent alone.

What was measured:
[1] = test system: C57BL/6 mice; assay: CPT-11-induced GI toxicity in mice; settings: for CPT-11-induced tissue damage in the ileum (histological score): co-administered with CPT-11 75 mg/kg, compared with CPT-11 alone
[2] = test system: C57BL/6 mice; assay: Intestinal transit time with 70-kDa FITC-dextran; assay type: in vivo; settings: compared to saline-treated mice
[3] = test system: intestinal organoids; assay: Intestinal organoids treated with CPT-11 with or without morphine; settings: CPT-11 in the presence or absence of morphine
[4] = test system: carboxylesterase (CES); settings: ref Quinney et al., 2005; cited from earlier work
[5] = Analgesic efficacy of morphine with CPT-11; assay type: in vivo; settings: CPT-11 co-administration
[6] = test system: MC38 colon adenocarcinoma cells; assay: MC38 subcutaneous tumor model, anti-tumor efficacy of CPT-11; settings: MC38 s.c. tumors; compared with saline controls
[7] = test system: MC38 colon adenocarcinoma cells; settings: mouse, in vivo

Compound: CN1CC[C@]23c4c5ccc(O)c4O[C@H]2[C@@H](O)C=C[C@H]3[C@H]1C5 [morphine, Morphine sulfate]
- CPT-11-induced tissue damage in the large intestine ([1]; co-administered with CPT-11): showed no effects on CPT-11-induced tissue damage
- CPT-11-induced tissue damage in the ileum (histological score) [1]: potentiated CPT-11-induced tissue damage in the ileum; also recorded: significantly potentiated CPT-11-induced tissue damage in the small intestines
- gut transit time [2]: significantly prolonged gut transit time
- growth of intestinal organoids [3]: did not show any direct effects on CPT-11-treated organoids

Compound: Clc1cccc(Cl)c1N=C1NCCN1 [clonidine, Clonidine hydrochloride]
- gut transit time [2]: significantly prolonged gut transit time

Compound: CN(C)C(=O)C(CCN1CCC(O)(c2ccc(Cl)cc2)CC1)(c1ccccc1)c1ccccc1 [loperamide, Loperamide]
- CPT-11-induced tissue damage in the ileum (histological score) [1]: did not significantly exacerbate small intestinal tissue damage
- weight loss ([1]; oral loperamide + CPT-11 vs CPT-11): did not significantly exacerbate
- carboxylesterase inhibition [4]: inhibitor of carboxylesterase (CES)

Compound: CCOc1ccc(NC(=S)N(CCO)Cc2cc3cc(C)cc(C)c3[nH]c2=O)cc1 [Inh-1, 1-((6,8-Dimethyl-2-oxo-1,2-dihydroquinolin-3-yl)methyl)-3-(4-ethoxyphenyl)-1-(2-hydroxyethyl)thiourea]
- intestinal epithelial damage (ileal histology) ([1]; Inh-1 in morphine + CPT-11-treated mice): rescued the intestinal epithelial damage observed with morphine and CPT-11

Compound: CCc1c2c(nc3ccc(OC(=O)N4CCC(N5CCCCC5)CC4)cc13)-c1cc3c(c(=O)n1C2)COC(=O)[C@]3(O)CC [CPT-11, Irinotecan hydrochloride]
- analgesic efficacy of morphine [5]: didn’t affect the analgesic efficacy of morphine
- reduction of tumor sizes [6]: 41.6%
- body weight loss in tumor-bearing mice [7]: induced weight loss
- growth of intestinal organoids [3]: inhibited the growth of crypt stem cells
